# System: adult male Lister Hooded rats
# Test: Test of novel object discrimination in rats
# Format: in vivo, rat
# Conditions: memantine alone 5, 10, 15 and 20 mg/kg i.p. vs vehicle, 20 minutes before trial, 4 hour inter-trial interval, FIG. 1
# Protocol: Adult male Lister Hooded rats (Charles River, UK) weighing 200-350 g at the start of the experiment were housed in groups of four on a 12:12 h light:dark cycle (lights on at 07:00 h). Food and water were available ad libitum throughout the study, and the room temperature (21±2° C.) and relative humidity (45-65%) were kept constant. In one experiment, rats received i.p. injections (2 ml/kg, −20 minutes prior to the familiarisation trial) of memantine (n=12) at 5, 10, 15 and 20 mg/kg compared with vehicle (0.5% methylcellulose in saline, 2 ml/kg), such that all rats received all doses of the compound in a random order with each behavioural test occurring at seven day intervals.
# In the combination study, a group of rats (n=12 each) received injection of a sub-effective dose of compound 841 (1 mg/kg i.p.) or vehicle (0.5% methylcellulose in saline, 2 ml/kg), either alone or combined with memantine (5 mg/kg). Each drug combination was administered to all rats in the group over a period of 4 weeks in a random order using a seven day behavioural test interval. […]
smiles,measurement,value
"CC12CC3CC(C)(C1)CC(N)(C3)C2 [memantine, 1-amino-3,5-dimethyladamantane]",discrimination of a novel object against a familiar object (time spent exploring each object),high amounts of said compound are necessary for rats to discriminate a novel object against a familiar object

# Source: patent publication US20100074955A1, “Combination of NMDA-Receptor Ligand and a Compound With 5-HT6 Receptor Affinity” (LABORATORIOS DEL DR. ESTEVE, S.A., priority 2006, published 2010)
